Data on 8 compounds can be found in paper PMC2374394, “Relationships between hydrophobicity, reactivity, accumulation and peripheral nerve toxicity of a series of platinum drugs” (British Journal of Cancer, 2000).

A short description of series [1]: Hydrophobicity (log kw), reverse-phase HPLC coupled to ICP-MS. The conditions noted are these: HPLC C8 column, actual or projected mobile phase 100% water; determinants from independent experiments. Format: physicochemical.
The test system of series [2] is female Wistar rats.
Method: Neurotoxicity was detected by measuring sensory nerve conduction velocity (SNCV) in Wistar rats treated twice per week at the maximum tolerated dose. […] Animals and treatment Age-matched inbred female Wistar rats were used. Animals were allowed to acclimatize for 2 weeks before the start of the experiment. The animals were 10 weeks old and weighed 210- 240 g at the start of experiment. Platinum compounds (except JM216) were dissolved in sterile 0.9% (w/v) NaCl (Baxter Healthcare, New Zealand) by vortex mixing and sonication at an injection volume of 10 ml kg-1 . The platinum compounds (except JM216) were given by intraperitoneal injection on a twice per week dosing schedule at intervals of 3-4 days and the treatment was repeated weekly for a total of 8 weeks. […] Animals were weighed twice a week and checked for signs of toxicity daily. Animals showing signs of distress were immediately and painlessly killed. Animals had continuous access to food and water. […] Hypnorm (fluanisone 10 mg ml-1 , fentanyl citrate 0.3 mg ml-1 , Jansen Pharmaceuticals, Sydney, Australia) diluted 1:1 with sterile water was given by intramuscular injection to provide light anaesthesia. Responses were evoked by stimu- lating the sciatic nerve at the sciatic notch and the tibial nerve at the ankle of the left hind limb using percutaneous needle elec- trodes.
The next series relates to patients. The conditions noted are these: cited from earlier work.
The subject of series [3] is plasma proteins. The arrangement: method as in van der Vijgh and Klein, 1986. The conditions noted are these: ref van der Vijgh and Klein, 1986; cited from earlier work.
Series [4] is described as follows: Hydrophobicity (log P), octanol-saline shake-flask method. The conditions noted are these: n-octanol / 0.9% NaCl shake-flask, platinum by ICP-MS, mean (n = 5).
For series [5], the system named is plasma proteins.
Series [6] relates to female Wistar rats. The settings on record: cited from earlier work.
Setting [7] is: female Wistar rats, twice per week dosing schedule at the MTD, intraperitoneal.
[8] abbreviates: rat plasma, 37C, initial half-life by one-phase exponential decay.
Where [9] appears, read: female Wistar rats, twice per week dosing schedule at the MTD, same protocol (JM216 by oral gavage), previous results ref McKeage et al, 1994, Screnci et al, 1997.

“And” between values parts separate entries of the source, which are not always exact repeats. Equal values may be shown once. Read-outs that look alike come from different tables or passages of the source.

The term Log P denotes the decadic logarithm of the partition coefficient of the neutral form, usually between octanol and water. A higher Log P goes with higher lipophilicity.

Consider `N[C@@H]1CCCC[C@H]1N.[Cl][Pt+2]([Cl])([Cl])[Cl]` (racemic) [Ormaplatin, rac-(DACH)PtCl4], for which, in series [1], the Log kw was 0.40 and 0.41. In the series with female Wistar rats [2] (female Wistar rats, repeated treatment twice per week at the MTD, intraperitoneal), the “Neurotoxic potency (cumulative dose causing altered SNCV)” value is listed as 26.0. For the same compound, the “Time to development of altered SNCV” value in the series on female Wistar rats [2] (setting [7]) was found to be 6.0 weeks. Further, the “Incidence of neurotoxicity in patients % (95% CI)” value (“Incidence … (95% CI)” for short) in the series on patients (ref Schilder et al, 1994, O'Rourke et al, 1998) was 87 (47-100) %.

In series [1], `N.N.O=C([O-])C1(C(=O)[O-])CCC1.[Pt+2]` [Carboplatin] had a Log kw of 0.20. For the same compound, in the series on female Wistar rats [2] (setting [7]), the “Time to development of altered SNCV” value is 8.0 weeks. Further, the “Incidence … (95% CI)” value in the series with patients (ref Canetta et al, 1985) was 5.8 (3.8-8.5) %. For the same compound, the “t (h), half-life of binding to plasma proteins in vitro” value (shortened to “t (h), half-life of binding”) with plasma proteins [3] was 48.6 h. For the same compound, the lipophilicity (Log P) in series [4] is given as -2.3; in series [4] (listed as carboplatin) it was -2.30.

For the compound `N.N.[Cl][Pt][Cl]` [Cisplatin], the “Time to development of altered SNCV” value with female Wistar rats [2] (rat, in vivo, ip) is listed as 7.0 weeks.

With `CC(=O)[O][Pt]([NH2])([Cl])([Cl])([NH]C1CCCCC1)[O]C(C)=O` [JM216, bis-acetato-ammine-dichloro-cyclohexylamine-platinum(IV)], the Log kw in series [1] was 2.27 and 2.40. Moreover, the “t (h), half-life of binding” value in the series with plasma proteins [5] (setting [8]) stood at 65 h. In addition, the “Incidence … (95% CI)” value in the series with patients (ref Judson et al, 1997) is given as 5.6 (0-27) %. Also, in the series on female Wistar rats [6] (setting [9]), the “Time to development of altered SNCV” value is recorded as greater than 20.5 weeks. For the same compound, the lipophilicity (Log P) in series [4] was -0.16.

As to `O=C1[O][Pt-2]2([NH2+]C3CCCC[C@H]3[NH2+]2)[O]C1=O` (stereo partly drawn) [Oxaliplatin, R,R-(DACH)Pt(oxalato)], the Log kw in series [1] was 0.44 and 0.45. Also, the “Time to development of altered SNCV” value in the series on female Wistar rats [6] (setting [9]) was 3.0 weeks.

As for `NC1CCCCC1N.[Cl-].[Cl-].[Cl-].[Cl-].[Pt+4]` (stereo not drawn) [R,R-(DACH)PtCl4], the Log kw in series [1] was 0.40 and 0.42. Further, the “t (h), half-life of binding” value in the series on plasma proteins [5] (setting [8]) is 0.97 h. In addition, the “Time to development of altered SNCV” value in the series on female Wistar rats [6] (rat, in vivo, po) is given as 4.0 weeks.

With `NC1CCCCC1N.O=C([O-])C(=O)[O-].[Pt+2]` (stereo not drawn) [S,S-(DACH)Pt oxalato], the Log kw in series [1] was 0.44 and 0.45. In the series with plasma proteins [5] (rat, plasma), the “t (h), half-life of binding” value was 1.21 h. The “Time to development of altered SNCV” value in the series with female Wistar rats [6] (rat, in vivo, po) is given as 7.0 weeks.

In the case of `NC1CCCCC1N.[Cl-].[Cl-].[Cl-].[Cl-].[Pt+4]` (stereo not drawn) [S,S-(DACH)PtCl4], the Log kw in series [1] was found to be 0.41. In the series on plasma proteins [5] (setting [8]), the “t (h), half-life of binding” value was found to be 0.78 h. In the series with female Wistar rats [6] (rat, in vivo, po), the “Time to development of altered SNCV” value is 7.0 weeks.
